Experimental data taken from patent US10023554B2, “Halogen-substituted heterocyclic compound salt” (UBE INDUSTRIES, LTD., priority 2014, dated 2018).

System: A2058 human melanoma cells
Assay: Cell migration test (LPA-induced migration, Chemo-Tx)
Assay type: cell-based
Conditions: LPA final concentration 100 nM, 3 hours at 37° C., read-out: concentration (IC50) of the test compound required for 50% inhibition of the cell migration activity of LPA
Protocol: The cell migration test was carried out using Chemo-Tx (registered trademark) (116-8, Neuro Probe). A2058 human melanoma cells (obtained from European Collection of Cell Culture) were cultured in a serum-free EMEM medium for 24 hours, and were re-suspended in a 0.1% BSA-containing DMEM medium to give a cell suspension. The test compounds dissolved in DMSO in various concentrations were each added to the cell suspension, and the suspensions were cultured at 37° C. for 15 minutes (final DMSO concentration 0.5%). LPA dissolved in a 0.1% BSA-containing DMEM medium (final concentration 100 nM) was added to a Chemo-Tx 96 well plate, and a Chemo-Tx filter coated with 0.001% Fibronectin on both sides was placed onto the plate. The cultured cell suspensions (25,000 cells) were added onto the upper surface of the filter and were further cultured at 37° C. for 3 hours. Thereafter, the cells on the upper surface of the filter were removed. After the filter was removed and was dried, the cells which had migrated to the lower surface of the filter were stained with Diff-Quik stain (16920, Sysmex). The absorbance of the filter (570 nm) was measured and the concentration (IC50) of the test compound required for 50% inhibition of the cell migration activity of LPA was determined by non-linear regression analysis using EXSAS (version 7.6.0, Arm Systex).

| SMILES | IC50 [nM] |
| --- | --- |
| COc1cc(-c2sc(Cl)cc2NC(=O)O[C@H](C)c2ccccc2)ccc1-c1ccc(C2(C(=O)O)CC2)cc1 [Example 1, Sodium (R)-1-[4′-(5-chloro-3-{[(1-phenylethoxy)carbonyl]amino}thiophen-2-yl)-2′-methoxy-[1,1′-biphenyl]-4-yl]cyclopropanecarboxylate] | ≤ 200 |
| COc1cc(-c2sc(Cl)cc2NC(=O)O[C@H](C)c2cc(F)ccc2F)ccc1-c1ccc(C2(C(=O)O)CC2)cc1 [Example 4, Sodium (R)-1-{4′-[5-chloro-3-({[1-(2,5-difluorophenyl)ethoxy]carbonyl}amino)thiophen-2-yl]-2′-methoxy-[1,1′-biphenyl]-4-yl}cyclopropanecarboxylate] | ≤ 200 |
| COc1cc(-c2sc(F)cc2NC(=O)O[C@H](C)c2ccccc2Cl)ccc1-c1ccc(C2(C(=O)O)CC2)cc1 [Example 7, Sodium (R)-1-{4′-[3-({[1-(2-chlorophenyl)ethoxy]carbonyl}amino)-5-fluorothiophen-2-yl]-2′-methoxy-[1,1′-biphenyl]-4-yl}cyclopropanecarboxylate] | ≤ 200 |
| C[C@@H](OC(=O)Nc1cc(Cl)sc1-c1ccc(-c2ccc(C3(C(=O)O)CC3)cc2)cc1)c1ccsc1 [Example 10, Sodium (R)-1-{4′-[5-chloro-3-({[1-(thiophen-3-yl)ethoxy]carbonyl}amino)thiophen-2-yl]-[1,1′-biphenyl]-4-yl}cyclopropanecarboxylate] | ≤ 200 |
| Cc1cscc1[C@@H](C)OC(=O)Nc1cc(F)sc1-c1ccc(-c2ccc(C3(C(=O)O)CC3)cc2)cc1 [Example 13, Sodium (R)-1-{4′-[5-fluoro-3-({[1-(4-methylthiophen-3-yl)ethoxy]carbonyl}amino)thiophen-2-yl]-[1,1′-biphenyl]-4-yl}cyclopropanecarboxylate] | ≤ 200 |
